The values below come from ChEMBL document CHEMBL2010711, “Synthesis and comparative evaluation of 4-oxa- and 4-aza-podophyllotoxins as antiproliferative microtubule destabilizing agents” (Bioorg Med Chem Lett, 2012).

Holding throughout (assay type): functional
One assay has as its system MDA-MB-435. The experiment in a line: Cytotoxicity against human MDA-MB-435 cells after 48 hrs by trypan blue dye exclusion assay. The note with it: MDA-MB-435, 48 h.
In another assay the test system is TK-10. Put plainly: Cytotoxicity against human TK10 cells after 48 hrs by trypan blue dye exclusion assay. The note with it: TK-10, 48 h.
Another assay relates to A498. Put plainly: Cytotoxicity against human A498 cells after 48 hrs by trypan blue dye exclusion assay. The note with it: A498, 48 h.
The test system of the next assay is 786-0. Put plainly: Cytotoxicity against human 786-0 cells after 48 hrs by trypan blue dye exclusion assay. The settings on record: 786-0, 48 h.
The subject of another assay is SK-MEL-2. The experiment in a line: Cytotoxicity against human SK-MEL-2 cells after 48 hrs by trypan blue dye exclusion assay. The note with it: SK-MEL-2, 48 h.
A further assay concerns Paracentrotus lividus. The experiment in a line: Antimitotic activity against Paracentrotus lividus embryo assessed as concentration required to cause 100% cleavage arrest after 2.5 to 6 hrs.
A further assay deals with CAKI-1. The experiment in a line: Cytotoxicity against human CAKI-1 cells after 48 hrs by trypan blue dye exclusion assay. The settings on record: CAKI-1, 48 h.
The test system of the next assay is SN12C. Put plainly: Cytotoxicity against human SN12C cells after 48 hrs by trypan blue dye exclusion assay.
The next assay has as its system SK-MEL-5. Put plainly: Cytotoxicity against human SK-MEL-5 cells after 48 hrs by trypan blue dye exclusion assay. The note with it: SK-MEL-5, 48 h.
The test system of the next assay is SF-295. The experiment in a line: Cytotoxicity against human SF295 cells after 48 hrs by trypan blue dye exclusion assay. The settings on record: SF-295, 48 h.
Another assay concerns MCF7. The experiment in a line: Cytotoxicity against human MCF7 cells after 48 hrs by trypan blue dye exclusion assay. The note with it: MCF7, 48 h.
The subject of the next assay is HT-29. Put plainly: Cytotoxicity against human HT-29 cells after 48 hrs by trypan blue dye exclusion assay. The note with it: HT-29, 48 h.
Another assay deals with PC-3. Put plainly: Cytotoxicity against human PC3 cells after 48 hrs by trypan blue dye exclusion assay. The note with it: PC-3, 48 h.
Another assay concerns UACC-62. Put plainly: Cytotoxicity against human UACC62 cells after 48 hrs by trypan blue dye exclusion assay. The note with it: UACC-62, 48 h.
A further assay deals with NCI-H23. The experiment in a line: Cytotoxicity against human NCI-H23 cells after 48 hrs by trypan blue dye exclusion assay. The note with it: NCI-H23, 48 h.
Another assay concerns SNB-75. Put plainly: Cytotoxicity against human SNB75 cells after 48 hrs by trypan blue dye exclusion assay. The note with it: SNB-75, 48 h.

The structures appear in SMILES notation.

For the compound `COc1ccc2c(c1)OC1=C(C(=O)OC1)C2c1cc(OC)c2c(c1)OCO2` (stereo unspecified), the GI50 in the assay on MDA-MB-435 was less than 10 nM; in the assay on TK-10, 268 nM; with A498, 27.2 nM; with 786-0 it was 51.4 nM; in the assay on SK-MEL-2, 34.3 nM; in the assay with CAKI-1, 58 nM. In addition, the GI50 in the assay with SN12C is 62.5 nM; in the assay with SK-MEL-5 it was 36.9 nM; in the assay on SF-295, 20.2 nM; in the assay with MCF7, 29.1 nM; in the assay with HT-29, 33.1 nM; in the assay on PC-3, 40.9 nM. In addition, the GI50 in the assay with UACC-62 was 35 nM; in the assay on NCI-H23 it was 23.5 nM; in the assay with SNB-75 it was 13.9 nM. In addition, in the assay on Paracentrotus lividus, the EC is given as 10 nM.

The GI50 is the concentration that inhibits growth by half.
